PubChem BioAssay (NCI)
Several values for one entry are separate records, joined by “and”; a condition that tells them apart may be missing. Identical values can stand only once.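 How tested: cells in 96-well plates exposed to compound for 48 hours at five concentrations. GI50 marks 50% less growth. Definition used: TGI = concentration required for complete inhibition of growth.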 *1 amine or outer side, *2 acyl side, *3 side chain or, on linkers, in order; H or OH if unused. Where a SMILES comes first, the peptide text is derived from it. Bridges are numbered along the chain shown (N, C = ends). Roman numbers before positions name the chains, in order. [ ]: non-standard residue; d: D form. Actinocin(9to1) = Cc1c2oc3c(C)ccc(C(=O)[*:1])c3nc-2c(C(=O)[*:2])c(N)c1=O; NMeT = CN[CH](C(=O)O)[CH](C)O; Sar = CNCC(=O)O

What was measured:
Test in all cases: NCI-60 cell line screen, 48 h
TK-10 renal = system: TK-10 renal
SK-MEL-5 melanoma = system: SK-MEL-5 melanoma
OVCAR-8 ovarian = system: OVCAR-8 ovarian
MDA-N = system: MDA-N
MDA-MB-435 = system: MDA-MB-435
NCI/ADR-RES ovarian = system: NCI/ADR-RES ovarian
NCI-H522 lung = system: NCI-H522 lung
MALME-3M melanoma = system: MALME-3M melanoma
HOP-92 NSCLC = system: HOP-92 NSCLC
RXF 393 renal = system: RXF 393 renal
HL-60(TB) leukemia = system: HL-60(TB) leukemia
KM12 colon = system: KM12 colon
UACC-257 melanoma = system: UACC-257 melanoma
HS 578T breast = system: HS 578T breast
EKVX NSCLC = system: EKVX NSCLC
SK-OV-3 ovarian = system: SK-OV-3 ovarian
OVCAR-3 ovarian = system: OVCAR-3 ovarian
NCI-H226 lung = system: NCI-H226 lung
OVCAR-4 ovarian = system: OVCAR-4 ovarian
MCF7 breast = system: MCF7 breast
CAKI-1 renal = system: CAKI-1 renal
SF-295 CNS = system: SF-295 CNS
RPMI-8226 leukemia = system: RPMI-8226 leukemia
LOX IMVI melanoma = system: LOX IMVI melanoma
U251 CNS = system: U251 CNS
HOP-62 NSCLC = system: HOP-62 NSCLC
A498 renal = system: A498 renal
SR leukemia = system: SR leukemia
K-562 leukemia = system: K-562 leukemia

Structure (SMILES): Cc1c2oc3c(C)ccc(C(=O)NC4C(=O)NC(C(C)C)C(=O)N5CCCC5C(=O)N(C)CC(=O)N(C)C(C(C)O)C(=O)OC4C)c3nc-2c(C(=O)NC2C(=O)NC(C(C)C)C(=O)N3CCCC3C(=O)N(C)CC(=O)N(C)C(C(C)O)C(=O)OC2C)c(N)c1=O (centres undefined) (I: TVP[Sar][NMeT] / II: TVP[Sar][NMeT]; ester I:1-I:C, II:1-II:C; linker I:N-II:N via Actinocin(9to1); configuration not given here)
- GI50 (TK-10 renal): 4200 nM and > 1000 nM
- TGI (TK-10 renal): > 28800 nM
- GI50 (SK-MEL-5 melanoma): 473 nM and > 1000 nM
- TGI (SK-MEL-5 melanoma): 2900 nM and > 1000 nM
- TGI (OVCAR-8 ovarian): > 43800 nM
- TGI (MDA-N): 16900 nM and > 1000 nM
- GI50 (MDA-MB-435): 2110 nM and > 1000 nM
- TGI (MDA-MB-435): 21000 nM and > 1000 nM
- GI50 (NCI/ADR-RES ovarian): 25900 nM and > 1000 nM
- TGI (NCI/ADR-RES ovarian): > 100000 nM
- TGI (NCI-H522 lung): 1530 nM and > 1000 nM
- GI50 (MALME-3M melanoma): 94.9 nM and 729 nM
- TGI (MALME-3M melanoma): 6050 nM and > 1000 nM
- TGI (HOP-92 NSCLC): > 71400 nM
- TGI (RXF 393 renal): 2950 nM and > 1000 nM
- GI50 (HL-60(TB) leukemia): 3000 nM and > 1000 nM
- TGI (HL-60(TB) leukemia): 28100 nM and > 1000 nM
- TGI (KM12 colon): > 100000 nM
- GI50 (UACC-257 melanoma): 2090 nM and > 1000 nM
- TGI (UACC-257 melanoma): 25100 nM and > 1000 nM
- TGI (HS 578T breast): > 27100 nM
- GI50 (EKVX NSCLC): 2560 nM and > 1000 nM
- TGI (EKVX NSCLC): 25000 nM and > 1000 nM
- GI50 (SK-OV-3 ovarian): 5750 nM and > 1000 nM
- TGI (SK-OV-3 ovarian): > 100000 nM
- GI50 (OVCAR-3 ovarian): 2230 nM and > 1000 nM
- TGI (OVCAR-3 ovarian): 16600 nM and > 1000 nM
- GI50 (NCI-H226 lung): 1470 nM and 618 nM
- TGI (NCI-H226 lung): 26800 nM and > 1000 nM
- GI50 (OVCAR-4 ovarian): 6100 nM and > 1000 nM
- TGI (OVCAR-4 ovarian): 32400 nM and > 1000 nM
- TGI (MCF7 breast): > 1000 nM
- GI50 (CAKI-1 renal): 3640 nM and > 1000 nM
- TGI (CAKI-1 renal): 13100 nM and > 1000 nM
- TGI (SF-295 CNS): > 100000 nM
- TGI (RPMI-8226 leukemia): 10600 nM and > 1000 nM
- TGI (LOX IMVI melanoma): 7840 nM and > 1000 nM
- TGI (U251 CNS): 7270 nM and > 1000 nM
- TGI (HOP-62 NSCLC): > 1000 nM
- GI50 (A498 renal): 327 nM and > 1000 nM
- TGI (A498 renal): 2330 nM and > 1000 nM
- GI50 (SR leukemia): 1100 nM and 187 nM
- TGI (SR leukemia): 5350 nM and > 1000 nM
- TGI (K-562 leukemia): > 36500 nM
